“Also recorded” adds a separate entry of the source. Read-outs that look alike come from different tables or passages of the source. Numbered stars: 1 amine (or outer) side, 2 acyl side, 3 side chain; on linkers, the order of the positions; unused ones are H or OH. Bridge positions count the residues as written; N and C are the ends. Square brackets hold non-standard residues; d marks the D form. Ends that are not written are not given here. I, II: the chains in the order shown. * marks the point of attachment. Biotin = O=C1N[C@H]2[C@H](CS[C@H]2CCCCC(=O)*)N1; Ttds = O=C(CCC(=O)[*:2])NCCCOCCOCCOCCCN[*:1]; Acm = CC(=O)NC*
Tests used:
[1] = system: HIV-1 89.6; format: cell-based
[2] = system: HIV-1 HXB2; settings: for anti-viral activity against HIV-1 HXB2, in words: single-cycle/single cell infectivity assay
[3] = system: HIV-1 BaL
[4] = Thermal denaturation (CD) in 2M guanidinium chloride; settings: for melting temperature / midpoint of thermal denaturation: in the presence of 2M guanidinium chloride
Method: The stability of SZN17 was compared with that of IZN17 using thermal denaturation analysis performed in the presence of 2M guanidine hydrochloride (GdnHCl).

[5] = system: D5-IgG binding to biotinylated IQN17; assay: Competition of D5-IgG binding to biotinylated IQN17, AlphaScreen
[6] = Circular dichroism spectroscopy and thermal denaturation without denaturant; format: physicochemical; settings: for melting point (thermal denaturation): no denaturant
Method: The IZ-like scaffold in CCI10N17 (SEQ ID NO:20) comprises only the ten COOH-terminal residues of the “IZ” scaffold, with addition of the covalent trimerizing unit (CCGG (SEQ ID NO:28)) at the NH2-terminus of the peptide. The non-covalently-stabilized CCI10N17 coiled-coil (i.e., the coiled-coil formed under non-oxidizing conditions) was dissolved at neutral pH, and its secondary structure content was determined by circular dichroism spectroscopy (CD).
In order to understand the role of the covalent trimerizing unit (CCGG; SEQ ID NO:28), the CCI10N17 peptide was dissolved to permit air oxidation under the same conditions as previously shown for CCIZN17, to generate covalently-stabilized coiled-coil molecules, (CCI10N17)3. […] The trimer (CCI10N17)3 was analyzed by CD and denaturation studies for analysis of both its secondary structure content and stability. The helical content of this molecule was only 85% with a melting curve showing a low cooperatively profile and a low melting point of about 60° C.

[7] = system: D5 IgG binding to biotinylated-IZN17; assay: Biotinylated-IZN17/D5 IgG interaction assay, AlphaScreen
Text: The instrument records these emissions.
(§1) This test determines whether the covalently-stabilized, homotrimeric or heterotrimeric CC-chimeric N-peptides can preserve the structure of the internal, N-helix coiled-coil of gp41.

[8] = system: D5 IgG binding to biotinylated 5-Helix; assay: Biotinylated 5-Helix/D5 IgG interaction (competition) assay, AlphaScreen
Text: The instrument records these emissions.
as §1

[9] = system: D5 IgG / biotinylated-IZN17; assay: IC50 (nM)
Text: Table printed on a drawing sheet, FIG. 6
Head of the field: IC50 (nM)
Wildtype IZN17 peptide was included as a positive control, previously shown to inhibit D5 binding in this assay.
First copying reader's note: The table stands beside a dose-response plot (Average Alpha Counts vs [Peptide]), which is not copied.

[10] = non-covalently-stabilized coiled-coil, neutral pH, 15 μM

Molecule: enfuvirtide
- IC50 ([1]; HIV strain 89.6, read-out: Anti-viral activity, IC50): 29 nM
- IC50 ([2]; read-out: Anti-viral activity, IC50, HIV strain HXB2): 5.3 nM
- IC50 ([3]; read-out: Anti-viral activity, IC50, HIV strain BaL): 2.4 nM

Molecule: IEKKIEAIEKKIEAIEKKIEAIEKLLQLTVWGIKQLQARIL [SZN17]
- IC50 ([2]; read-out: IC50 in single-cell infectivity assay, against HIV BXB2 (so in the source), unit inferred): 1.5 nM
- melting temperature / midpoint of thermal denaturation [4]: > 90 °C

Molecule: IKKEIEAIKKEQEAIKKKIEAIEKLLQLTVaGIKQLQARIL (Ac-IKKEIEAIKKEQEAIKKKIEAIEKLLQLTVAGIKQLQARIL-NH2) [IZN17A7]
- Tm (2M GdnHCl), midpoint of thermal denaturation [4]: 61.4 °C
- competition of D5-IgG binding to biotinylated IQN17, in words [5]: completely abolish binding of D5

Molecule: IKKEIEAIKKEQEAIKKKIEAIEKLLQLTVWGIKaLQARIL (Ac-IKKEIEAIKKEQEAIKKKIEAIEKLLQLTVWGIKALQARIL-NH2; not fully specified (residue 35); printed as IKKEIEAIKKEQEAIKKKIEAIEKLLQLTVWGIKaLQARIL) [IZN17A11]
- Tm (2M GdnHCl), midpoint of thermal denaturation [4]: 66.0 °C

Molecule: ac-C(Acm)(thioE10N17)3: one ac-C(Acm)Ttds-CCE10N17 ligated via two thioether bonds to two acetyl-GGGE10N17 chains (peptide 1 {CH2CO}-C(Acm)[Ttds]CCIEEKIEEIEELLQLTVWGIKQLQARIL; peptide 2 Ac-GGGIEEKIEEIEELLQLTVWGIKQLQARIL; thioether I:N-I:3, I:N-I:4; numbers in words are those of the source; also: chain 2 present twice, each copy ligated via thioether to one of the two Cys of chain 1)
- anti-viral activity against HIV-1 HXB2, in words [2]: much lower potencies
- melting temperature / midpoint of thermal denaturation [4]: above 90 °C

Molecule: CCGGIKKEIEAIKKEQEAIKKKIEAIEKLLQLTVWGIKALAAAIA [CCIZN17Ala4]
- anti-viral activity against HIV-1 HXB2, in words [2]: retain anti-viral activity

Molecule: IKKEIEAIKKEQEATKKKIEAIEKLLQLTVWGIKQLaARIL [IZN17A13]
- Tm (2M GdnHCl), midpoint of thermal denaturation [4]: 71.5 °C

Molecule: IKKEIEAIKKEQEAIKKKIEAIEKaLQLTVWGIKQLQARIL (Ac-IKKEIEAIKKEQEAIKKKIEAIEKALQLTVWGIKQLQARIL-NH2) [IZN17A1]
- Tm (2M GdnHCl), midpoint of thermal denaturation [4]: 51.7 °C

Molecule: CCGGIKKKIEAIEKLLQLTVWGIKQLQARIL [CCI10N17]
- helical content by circular dichroism [6, 10]: 61%
- anti-viral activity against HIV-1 HXB2, in words [2]: less potent anti-virals

Molecule: IKKEIEAIKKEQEAIKKKIEAIEKLLQLTaWGIKQLQARIL (Ac-IKKEIEAIKKEQEAIKKKIEAIEKLLQLTAWGIKQLQARIL-NH2) [IZN17A6]
- Tm (2M GdnHCl), midpoint of thermal denaturation [4]: 56.4 °C

Molecule: IKKEIEAIKKEQEAIKKKIEAIEKLLQLTVWGIaQLQARIL (Ac-IKKEIEAIKKEQEAIKKKIEAIEKLLQLTVWGIAQLQARIL-NH2) [IZN17A10]
- Tm (2M GdnHCl), midpoint of thermal denaturation [4]: 68.1 °C
- competition of D5-IgG binding to biotinylated IQN17, in words [5]: completely abolish binding of D5

Molecule: I: Ac-CCGGIKKKIEAIEKLLQLTVWGIKQLQARIL-NH2 / II: Ac-CCGGIKKKIEAIEKLLQLTVWGIKQLQARIL-NH2 / III: Ac-CCGGIKKKIEAIEKLLQLTVWGIKQLQARIL-NH2 (disulfide I:1-III:2, I:2-II:2, II:1-III:1; C-terminus assumed) [(CCI10N17)3]
- helical content by circular dichroism [6]: 85%
- melting point (thermal denaturation) [6]: about 60 °C
- melting point (thermal denaturation) ([6]; listed as (CC110N17)3): 60 °C
- fold less potent (IC50) than (CCIZN17)3 [2]: approximately 150 fold
- IC50 ([2]; HXB2): 24 nM
- fold reduction in anti-viral activity relative to IZN17 ([2]; HXB2): approximately 10 fold
- anti-viral activity against HIV-1 HXB2, in words [2]: less potent in anti-viral activity assays
- D5 IgG binding in bio-IZN17/D5 IgG interaction assay, in words [7]: somewhat less effective than 112N7; also recorded: clearly inhibits
- D5 IgG binding in bio-5-Helix/D5 IgG interaction assay, in words [8]: competes for binding of D5 IgG to Biotin-5-Helix

Molecule: IKKEIEAIKKEQEAIKKKIEAIEKLLQaTVWGIKQLQARIL (Ac-IKKEIEAIKKEQEAIKKKIEAIEKLLQATVWGIKQLQARIL-NH2) [IZN17A4]
- Tm (2M GdnHCl), midpoint of thermal denaturation [4]: 58.2 °C
- competition of D5-IgG binding to biotinylated IQN17, in words [5]: completely abolish binding of D5

Molecule: Ac-LLQLTVWGIKQLQARILAIKKEIEAIKKEQEAIKKKIEAI-NH2 (C-terminus assumed) [N17IZ]
- IC50 ([2]; HXB2): 800 nM

Molecule: IEKKIEEIEKKIEEIEKKIEEIEKLLQLTVWGIKQLQARIL [EZN17, EZ scaffold fused to N17]
- IC50 [9]: 18.3 nM

Molecule: IKKEIEAIKKEQEAIKKKIEAIEKLLQLTVWGIKQLQARIa (Ac-IKKEIEAIKKEQEAIKKKIEAIEKLLQLTVWGIKQLQARIA-NH2; not fully specified (residue 41)) [IZN17A17]
- Tm (2M GdnHCl), midpoint of thermal denaturation [4]: 60.6 °C

Molecule: Biotin-GGIKKEIEAIKKEQEAIKKKIEAIEKEIEAQQHLLQLTVWGIKQLQARIL-NH2 [Biotin-IZN23]
- IC50 ([2]; HXB2): 2.17 nM

Molecule: (CCS10N17)3: covalent disulfide trimer of CCS10N17 (CCGGIEKKIEAIEKLLQLTVWGIKQLQARIL; also: disulfide-linked homotrimer)
- anti-viral activity against HIV-1 HXB2, in words [2]: much lower potencies

Molecule: CCGGIEKKIEEIEKKIEEIEKKIEEIEKLLQLTVWGIKQLQARIL [CCEZN17]
- anti-viral activity against HIV-1 HXB2, in words [2]: lack of anti-viral activity
- D5 IgG binding in bio-IZN17/D5 IgG interaction assay, in words [7]: interact with D5 IgG
- D5 IgG binding in bio-5-Helix/D5 IgG interaction assay, in words [8]: interact with D5 IgG

Molecule: IKKEIEAIKKEQEAIKKKIEAIEKLLaLTVWGIKQLQARIL (Ac-IKKEIEAIKKEQEAIKKKIEAIEKLLALTVWGIKQLQARIL-NH2) [IZN17A3]
- Tm (2M GdnHCl), midpoint of thermal denaturation [4]: 64.7 °C

Molecule: (CCIZN11IZ)3: covalent disulfide trimer of CCIZN11IZ (CCGGIKKEIEAIKKEQEAIKKKIEAIEKLLQLTVWGIKQIKKEIEAI; also: disulfide-linked homotrimer)
- IC50 ([2]; read-out: IC50 against HIV-1 HXB2, single-cycle infectivity assay, HXB2): 0.3 nM
- D5 IgG binding in bio-5-Helix/D5 IgG interaction assay, in words [8]: binds D5 IgG

Molecule: IEKKIEEIEKKIEEIEKKIEEIEKLLQLTVWGIKQLQARIL [EZN17]
- helical content by circular dichroism [6]: fully helical
- D5 IgG binding in bio-IZN17/D5 IgG interaction assay, in words [7]: strongly binds to D5 IgG; also recorded: interact with D5 IgG; also recorded: affinity comparable to IZN17
- D5 IgG binding in bio-5-Helix/D5 IgG interaction assay, in words [8]: interact with D5 IgG

Molecule: IKKEIEAIKKEQEAIKKKIEAIEKLLQLTVWGIKQLQAaIL (Ac-IKKEIEAIKKEQEAIKKKIEAIEKLLQLTVWGIKQLQAAIL-NH2; not fully specified (residue 38); printed as IKKEIEAIKKEQEAIKKKIEAIEKLLQLTVWGIKQLQAaIL) [IZN17A15]
- Tm (2M GdnHCl), midpoint of thermal denaturation [4]: 77.2 °C

Molecule: IKKKIEAIEKLLQLTVWGIKQLQARILGGCC [I10N17CC]
- anti-viral activity against HIV-1 HXB2, in words [2]: less potent anti-virals

Molecule: (CCS17N17)3: covalent disulfide trimer of CCS17N17 (CCGGIEKKIEAIEKKIEAIEKLLQLTVWGIKQLQARIL; also: disulfide-linked homotrimer)
- melting temperature / midpoint of thermal denaturation [4]: above 90 °C

Molecule: Ac-IKKEIEAIKKEQEAIKKKIEAIEKLLQLTVWGIKQLQARIL-NH2 [IZN17, reference compound]
- anti-viral activity against HIV isolate 89.6, in words [1]: completely resistant towards IZN17
- Anti-viral activity, IC50 ([1]; HIV strain 89.6): No
- helical content by circular dichroism [6, 10]: fully helical
- IC50 ([2]; HXB2): 1.7 nM
- IC50 ([3]; BaL): 3.2 nM
- Tm (2M GdnHCl), midpoint of thermal denaturation [4]: 61.5 °C
- melting temperature / midpoint of thermal denaturation [4]: 61.5 °C

B1: ac-C(Acm)(thioIZN17)3: one ac-C(Acm)Ttds-CCIZN17 chain ligated via two thioether bonds to two acetyl-GGGIZN17 chains (peptide)
peptide 1: CCCGGIKKEIEAIKKEQEAIKKKIEAIEKLLQLTVWGIKQLQARIL
peptide 2: GGGIKKEIEAIKKEQEAIKKKIEAIEKLLQLTVWGIKQLQARIL
- anti-viral activity against HIV-1 HXB2, in words [2]: comparable antiviral activity to (CCIZN17)3

Reference: patent publication US7811577B2 (priority 2004, dated 2010)
